Earlier results as cited in US20080233128A1, “Treatment of Viral Infections” (priority 2006, published 2008).

System: circulating T-cells

Substance: alemtuzumab
- time to full recovery of T-cells (after a single dose, FIG. 1): ≥ 3 months
- T-cell depletion (killing of circulating T-cells) (single dose, FIG. 1, mean ALC as a function of time): kill all circulating T-cells
